The nature of test [1]: Inhibition of recombinant hepatitis C virus NS3 helicase domain using DNA duplex S1 labelled with [gamma-32P]ATP as substrate after 30 mins. More on the design: species or system Hepacivirus hominis.
Test [2] deals with Hepacivirus hominis. As to the kind of experiment: Inhibition of recombinant hepatitis C virus NS3 helicase domain NTPase activity by TLC.
Test [3] in a line: Inhibition of recombinant hepatitis C virus NS3 helicase domain using DNA duplex S(DB2)a labelled with [gamma-32P]ATP as substrate after 30 mins. Also noted: species or system Hepacivirus hominis.
A short description of test [4]: Inhibition of recombinant hepatitis C virus NS3 helicase domain using DNA duplex S(DB11) labelled with [gamma-32P]ATP as substrate after 30 mins. Also noted: species or system Hepacivirus hominis.
Test [5] is described as follows: Inhibition of recombinant hepatitis C virus NS3 helicase domain using DNA duplex SM1 labelled with [gamma-32P]ATP as substrate after 30 mins. Also noted: species or system Hepacivirus hominis.
Test [6] is described as follows: Inhibition of recombinant hepatitis C virus NS3 helicase domain using DNA duplex S(DB2)b labelled with [gamma-32P]ATP as substrate after 30 mins. More on the design: species or system Hepacivirus hominis.
The test system of test [7] is Hepacivirus hominis. As to the kind of experiment: Inhibition of recombinant hepatitis C virus NS3 helicase domain using DNA duplex S(DB2)a labelled with [gamma-32P]ATP as substrate up to 400 after 30 mins.
In test [8] the test system is Hepacivirus hominis. The test is described as follows: Inhibition of recombinant hepatitis C virus NS3 helicase domain using DNA duplex SM1 labelled with [gamma-32P]ATP as substrate up to 400 after 30 mins.
The subject of test [9] is Hepacivirus hominis. The test is described as follows: Inhibition of recombinant hepatitis C virus NS3 helicase domain using DNA duplex S(DB11) labelled with [gamma-32P]ATP as substrate up to 400 after 30 mins.
Test [10] has as its system Hepacivirus hominis. As to the kind of experiment: Inhibition of recombinant hepatitis C virus NS3 helicase domain using DNA duplex S1 labelled with [gamma-32P]ATP as substrate up to 400 after 30 mins.
Test [11] relates to Hepacivirus hominis. As to the kind of experiment: Inhibition of recombinant hepatitis C virus NS3 helicase domain using DNA duplex S(DB2)b labelled with [gamma-32P]ATP as substrate up to 400 after 30 mins.
Test [12] relates to Hepacivirus hominis. As to the kind of experiment: Inhibition of recombinant hepatitis C virus NS3 helicase domain by PTI spectrofluorimetry.
Test [13] concerns Hepacivirus hominis. As to the kind of experiment: Inhibition of recombinant hepatitis C virus NS3 helicase domain assessed as the enzyme concentration at which a half of compound molecules are bound by PTI spectrofluorimetry.
Test [14] in a line: Inhibition of recombinant hepatitis C virus NS3 helicase domain NTPase activity by TLC in presence of poly(U). More on the design: species or system Hepacivirus hominis.
For test [15], the system named is Hepacivirus hominis. The test is described as follows: Enhancement of binding efficacy between compound-treated recombinant hepatitis C virus NS3 helicase and 32P-labelled SM1 DNA duplex after 10 mins.
The nature of test [16]: Inhibition of recombinant hepatitis C virus NS3 helicase domain using DNA duplex SM2 labelled with [gamma-32P]ATP as substrate after 30 mins. Also noted: species or system Hepacivirus hominis.
The nature of test [17]: Inhibition of recombinant hepatitis C virus NS3 helicase domain using RNA duplex rSM2 labelled with [gamma-32P]ATP as substrate after 30 mins. Also noted: species or system Hepacivirus hominis.
Test [18] has as its system Hepacivirus hominis. As to the kind of experiment: Inhibition of recombinant hepatitis C virus NS3 helicase domain NTPase activity at 400 uM by TLC in presence of poly(U).

Activity calls are given as the source filed them. The rule behind the calls is not given here.

Broadly, the IC50 is the point on the concentration scale where inhibition reaches its midpoint.

On to `CN1CCN(c2ccc3nc(-c4ccc5nc(CNC(=O)CCCC(=O)NCc6nc7ccc(-c8nc9ccc(N%10CCN(C)CC%10)cc9[nH]8)cc7[nH]6)[nH]c5c4)[nH]c3c2)CC1`, for which the concentration for half-maximal inhibition (IC50) in [1] was > 100 µM; in test [3] it was 220 µM; in test [4], 230 µM; in test [5] it was 235 µM; in test [6] it was 250 µM. Besides, in test [2], the inhibition entry is “inactive”.
As to `CN1CCN(c2ccc3[nH]c(-c4ccc5[nH]c(-c6ccc(O)cc6)nc5c4)nc3c2)CC1`, the inhibition entry in [2], in test [7], in test [8], in test [9], in [10] and in test [11] was “inactive” in each case.
With `CN1CCN(c2ccc3nc(-c4ccc5nc(CNC(=O)CCCCCCCC(=O)NCc6nc7ccc(-c8nc9ccc(N%10CCN(C)CC%10)cc9[nH]8)cc7[nH]6)[nH]c5c4)[nH]c3c2)CC1`, the IC50 was > 100 µM in test [1]; 150 µM in [3]; 140 µM in test [4]; 210 µM in test [5]; 140 µM in test [6]. Besides, the inhibition result in test [2] was “inactive”.
Take `CN1CCN(c2ccc3nc(-c4ccc5nc(CNC(=O)CCCCCCCCCCCC(=O)NCc6nc7ccc(-c8nc9ccc(N%10CCN(C)CC%10)cc9[nH]8)cc7[nH]6)[nH]c5c4)[nH]c3c2)CC1`: in test [12], the inhibition result was “Active”. Further, in test [13], the Activity stood at 7.3 µM. The IC50 was 10 µM in test [1]; 20 µM in test [14]; 7 µM in [3]; 8 µM in test [4]; 9 µM in [16]; 1.4 µM in test [17]. In addition, the IC50 in test [5] was found to be 7 µM; in test [6], 12 µM. The inhibition entry in test [2] and in [18] was “inactive” in each case. Further, the result in [15] was Active.
With `CN1CCN(c2ccc3nc(-c4ccc5nc(CNC(=O)CCCCCC(=O)NCc6nc7ccc(-c8nc9ccc(N%10CCN(C)CC%10)cc9[nH]8)cc7[nH]6)[nH]c5c4)[nH]c3c2)CC1`, the 50% inhibitory concentration (IC50) was > 100 µM in test [1]; 150 µM in test [3]; 160 µM in [4]; 225 µM in test [5]; 200 µM in test [6]. The inhibition entry in test [2] was “inactive”.
Take `CC(=O)NCc1nc2ccc(-c3nc4ccc(N5CCN(C)CC5)cc4[nH]3)cc2[nH]1`: the inhibition entry in [2], in test [7], in test [8], in test [9], in test [10] and in test [11] was “inactive” throughout.
Regarding `CN(CCCOc1ccc(-c2nc3ccc(-c4nc5ccc(N6CCN(C)CC6)cc5[nH]4)cc3[nH]2)cc1)CCCOc1ccc(-c2nc3ccc(-c4nc5ccc(N6CCN(C)CC6)cc5[nH]4)cc3[nH]2)cc1`, the concentration for half-maximal inhibition (IC50) in test [1] was 5 µM; in [3], 12 µM; in [4], 15 µM; in [5], 18 µM; in [6], 10 µM. For the same molecule, the inhibition entry in test [2] is “inactive”.
For the molecule `CN1CCN(c2ccc3nc(-c4ccc5nc(CNC(=O)CCC(=O)NCc6nc7ccc(-c8nc9ccc(N%10CCN(C)CC%10)cc9[nH]8)cc7[nH]6)[nH]c5c4)[nH]c3c2)CC1`, the inhibition result in test [12], in [2] and in test [18] was “inactive” throughout. In [13], the Activity came out at 51 µM. The half-maximal inhibitory concentration (IC50) in test [1] is > 100 µM; in [14] it was 280 µM; in test [3], 250 µM; in [4] it was 240 µM; in test [16], 240 µM; in test [17] it was 38 µM. Besides, the IC50 in [5] came out at 230 µM; in [6], 260 µM. The result in test [15] was inactive.
Consider `CN1CCN(c2ccc3nc(-c4ccc5nc(CNC(=O)CCCCC(=O)NCc6nc7ccc(-c8nc9ccc(N%10CCN(C)CC%10)cc9[nH]8)cc7[nH]6)[nH]c5c4)[nH]c3c2)CC1`, for which, in test [2], the inhibition entry is “inactive”. Moreover, the IC50 was 150 µM in test [3], 170 µM in test [4], 230 µM in test [5] and 240 µM in [6].

The values are drawn from ChEMBL document CHEMBL1821570, “Inhibition of the helicase activity of the HCV NS3 protein by symmetrical dimeric bis-benzimidazoles” (Bioorg Med Chem Lett, 2011).
